Reference: patent US4803074A, “FR-900848 substance and preparation thereof” (priority 1987, dated 1989)
In brackets after ≈: the same amount, converted by molar mass.

Legend:
fungi = test: In vitro antimicrobial activity (summary statement); type: cell-based; settings: for example Aspergillus niger, Geotrichum candidum, Trichophyton asteroides
Procedure: (§1) In vitro antimicrobial activity was determined by the two-fold agar-plate dilution method as described below.
(§2) One loopful of an overnight culture of each test strain in malt extract broth was streaked on malt extract agar containing graded concentrations of FR-900848 substance and MIC was determined after incubation at 37° C. for 20 hours.

Aureobasidium pullulans = test: MIC (minimal inhibitory concentration), two-fold agar-plate dilution method; type: cell-based; settings: malt extract agar, 37° C., 20 hours
Procedure: as §1, §2

[1] = tested on: Mucor rouxianus (Calmette) Wehmer; test: as above; type: cell-based; settings: 20 h, read-out: MIC (minimal inhibitory concentration)
Procedure: as §1, §2

Trichophyton asteroides = test: as above; type: cell-based; settings: malt extract agar, 37° C., 20 hours
Procedure: as §1, §2

Fusarium oxysporum = test: as above; type: cell-based; settings: malt extract agar, 37° C., 20 hours
Procedure: as §1, §2

Geotrichum candidum = test: as above; type: cell-based; settings: malt extract agar, 37° C., 20 hours
Procedure: as §1, §2

[2] = tested on: Aspergillus niger IFO 4417; test: as above; type: cell-based; settings: IFO4417, malt extract agar, 37° C., 20 hours
Procedure: as §1, §2

Sclerotinia arachidis = test: as above; type: cell-based; settings: malt extract agar, 37° C., 20 hours
Procedure: as §1, §2

[3] = Acute toxicity by intraperitoneal injection; settings: mouse, in vivo, ip, mice (ICR, male, 4 weeks old)
Description: Acute toxicity of FR-900848 substance in mice (ICR, male, 4 weeks old) by intraperitoneal injection is more than 1.0 g/kg.

Solubility = type: physicochemical

For `CC1CC1C=CC1CC1C1CC1C1CC1C1CC1C=CC=CC(=O)NCC1OC(N2CCC(=O)NC2=O)C(O)C1O` (centres unmarked) [FR-900848 substance], which “antimicrobial activity against fungi” value (fungi) is on record?
The value was “showed antimicrobial activity”.

And the MIC (Aureobasidium pullulans)?
Its MIC is 0.03 µg/mL (≈ 0.053 µM).

What about the MIC [1] of the same compound?
Its MIC is 0.03 µg/mL (≈ 0.053 µM).

What about the MIC (Trichophyton asteroides) of the same compound?
Its MIC is 0.5 µg/mL (≈ 0.884 µM).

What about the MIC (Fusarium oxysporum) of the same compound?
The MIC was 0.05 µg/mL (≈ 0.0884 µM).

What about the MIC (Geotrichum candidum) of the same compound?
The MIC was 0.12 µg/mL (≈ 0.212 µM).

What about the MIC [2] of the same compound?
Its MIC is 0.015 µg/mL (≈ 0.0265 µM).

And the MIC (Sclerotinia arachidis)?
The MIC was 0.05 µg/mL (≈ 0.0884 µM).

And the LD50 [3]?
The LD50 was over 1000 mg/kg.

And the Solubility (Solubility; chloroform)?
Its Solubility is “slightly soluble”.

And the Solubility (Solubility; dimethylsulfoxide)?
Its Solubility is “soluble”.

What about the Solubility (Solubility; ethyl acetate) of the same compound?
Its Solubility is “slightly soluble”.

What about the Solubility (Solubility; methanol) of the same compound?
The Solubility was “slightly soluble”.

And the Solubility (Solubility; water)?
The Solubility was “insoluble”.
